Test results taken from the supplement of paper PMC10307832.

What was measured:
Assay in all cases: relative viability (nuclei count vs DMSO), 5 days (fraction); higher = more cells survive
Gemcitabine + Trametinib = compound: Nc1ccn([C@@H]2O[C@H](CO)[C@@H](O)C2(F)F)c(=O)n1 [Gemcitabine] + CC(=O)Nc1cccc(-n2c(=O)n(C3CC3)c(=O)c3c(Nc4ccc(I)cc4F)n(C)c(=O)c(C)c32)c1 [Trametinib] (partner 0.02 µM)
Procedure, shortened: (§1)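 One day after seeding in 1536-well plates, lung cancer cell lines were dosed by pin tool. Dosing was either single-drug or a fixed anchor-drug dose plus five library-drug doses (not always all listed) in √10 steps. After 5 days, nuclei were stained in one fix-and-stain step and counted on 4× images, and relative viability is the nuclei count of treated wells over that of vehicle wells, given as the median of duplicate plates.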

Gemcitabine + OSI-027 = compound: Nc1ccn([C@@H]2O[C@H](CO)[C@@H](O)C2(F)F)c(=O)n1 [Gemcitabine] + COc1cccc2cc(-c3nc([C@H]4CC[C@H](C(=O)O)CC4)n4ncnc(N)c34)[nH]c12 [OSI-027] (partner 0.5 µM)
Procedure, shortened: as §1

Gemcitabine + Lapatinib = compound: Nc1ccn([C@@H]2O[C@H](CO)[C@@H](O)C2(F)F)c(=O)n1 [Gemcitabine] + CS(=O)(=O)CCNCc1ccc(-c2ccc3ncnc(Nc4ccc(OCc5cccc(F)c5)c(Cl)c4)c3c2)o1 [Lapatinib] (partner 2 µM)
Procedure, shortened: as §1

Gemcitabine + Linsitinib = compound: Nc1ccn([C@@H]2O[C@H](CO)[C@@H](O)C2(F)F)c(=O)n1 [Gemcitabine] + C[C@]1(O)C[C@@H](c2nc(-c3ccc4ccc(-c5ccccc5)nc4c3)c3c(N)nccn32)C1 [Linsitinib] (partner 1 µM)
Procedure, shortened: as §1

Row | Cell Line | relative viability (Gemcitabine + Trametinib; first compound 0.001 µM) | relative viability (Gemcitabine + Trametinib; first compound 0.003162 µM) | relative viability (Gemcitabine + Trametinib; first compound 0.01 µM) | relative viability (Gemcitabine + Trametinib; first compound 0.03162 µM) | relative viability (Gemcitabine + Trametinib; first compound 0.1 µM) | relative viability (Gemcitabine + OSI-027; first compound 0.001 µM) | relative viability (Gemcitabine + OSI-027; first compound 0.003162 µM) | relative viability (Gemcitabine + OSI-027; first compound 0.01 µM) | relative viability (Gemcitabine + OSI-027; first compound 0.03162 µM) | relative viability (Gemcitabine + OSI-027; first compound 0.1 µM) | relative viability (Gemcitabine + Lapatinib; first compound 0.001 µM) | relative viability (Gemcitabine + Lapatinib; first compound 0.003162 µM) | relative viability (Gemcitabine + Lapatinib; first compound 0.01 µM) | relative viability (Gemcitabine + Lapatinib; first compound 0.03162 µM) | relative viability (Gemcitabine + Lapatinib; first compound 0.1 µM) | relative viability (Gemcitabine + Linsitinib; first compound 0.001 µM) | relative viability (Gemcitabine + Linsitinib; first compound 0.003162 µM) | relative viability (Gemcitabine + Linsitinib; first compound 0.01 µM) | relative viability (Gemcitabine + Linsitinib; first compound 0.03162 µM) | relative viability (Gemcitabine + Linsitinib; first compound 0.1 µM)
1 | HCC-78 | 0.749 | 0.42 | 0.373 | 0.274 | 0.231 | 0.325 | 0.312 | 0.263 | 0.211 | 0.229 | 0.695 | 0.485 | 0.146 | 0.272 | 0.168 | 0.532 | 0.347 | 0.199 | 0.189 | 0.154
2 | HCC-366 | 0.284 | 0.392 | 0.0497 | 0.0318 | 0.0203 | 0.899 | 1.23 | 0.478 | 0.0351 | 0.0249 | 0.954 | 1.19 | 0.546 | 0.0287 | 0.0142 | 0.722 | 0.477 | 0.138 | 0.0302 | 0.0117
3 | HCC-827 | 0.537 | 0.247 | 0.316 | 0.184 | 0.156 | 0.802 | 0.477 | 0.444 | 0.159 | 0.159 | 0.181 | 0.177 | 0.18 | 0.138 | 0.126 | 0.96 | 0.79 | 0.546 | 0.327 | 0.252
4 | HOP-62 | 0.366 | 0.405 | 0.24 | 0.122 | 0.0817 | 0.681 | 0.557 | 0.141 | 0.127 | 0.0935 | 0.961 | 0.863 | 0.301 | 0.0724 | 0.0756 | 1.07 | 0.815 | 0.129 | 0.0627 | 0.056
5 | IA-LM | – | – | – | – | – | – | – | – | – | – | – | 0.853 | 0.353 | 0.124 | 0.0354 | 0.768 | 0.461 | 0.324 | 0.149 | 0.0467
6 | LC-2-ad | 0.926 | 1.01 | 0.845 | 0.645 | 0.236 | 0.817 | 0.578 | 0.279 | 0.195 | 0.188 | 0.978 | 0.917 | 0.82 | 0.188 | 0.111 | 0.895 | 0.852 | 0.553 | 0.143 | 0.132
7 | LCLC-97TM1 | 0.169 | 0.143 | 0.12 | 0.126 | 0.0828 | 0.468 | 0.524 | 0.138 | 0.121 | 0.116 | 0.829 | 0.683 | 0.178 | 0.0781 | 0.0994 | 0.147 | 0.159 | 0.117 | 0.104 | 0.136
8 | LCLC-103H | 0.61 | 0.695 | 0.709 | 0.712 | 0.56 | 0.442 | 0.449 | 0.418 | 0.288 | 0.296 | – | – | – | – | – | 1.02 | 1.21 | 0.998 | 0.76 | 0.509
9 | LK-2 | 0.926 | 0.65 | 0.731 | 0.206 | 0.167 | 0.217 | 0.18 | 0.167 | 0.163 | 0.155 | 0.977 | 0.692 | 0.817 | 0.329 | 0.249 | 0.6 | 0.485 | 0.433 | 0.196 | 0.156
10 | LOU-NH91 | 0.787 | 0.762 | 0.578 | 0.466 | 0.358 | 0.709 | 0.616 | 0.45 | 0.252 | 0.215 | 0.733 | 0.72 | 0.479 | 0.267 | 0.276 | 0.922 | 0.686 | 0.547 | 0.311 | 0.281
11 | LU99A | 0.575 | 0.635 | 0.563 | 0.594 | 0.387 | 0.275 | 0.348 | 0.307 | 0.304 | 0.286 | 1.15 | 1.16 | 0.932 | 0.974 | 1 | 0.601 | 0.597 | 0.487 | 0.576 | 0.554
12 | LXF-289 | 0.644 | 0.683 | 0.611 | 0.205 | 0.147 | 0.93 | 0.77 | 0.236 | 0.0894 | 0.105 | 0.922 | 0.921 | 0.783 | 0.282 | 0.141 | 0.957 | 0.953 | 0.751 | 0.147 | 0.107
13 | NCI-H441 | 0.46 | 0.318 | 0.196 | 0.131 | 0.132 | 0.583 | 0.28 | 0.247 | 0.165 | 0.201 | – | – | – | – | – | 0.513 | 0.339 | 0.102 | 0.11 | 0.128
14 | NCI-H1299 | – | – | – | – | – | – | – | – | – | – | 0.941 | 1.01 | 0.962 | 0.938 | 0.921 | 0.987 | 1.01 | 0.981 | 1 | 0.972
15 | NCI-H1563 | – | – | – | – | – | 0.761 | 0.726 | 0.631 | 0.5 | 0.545 | 1.01 | 1.19 | 0.901 | 0.704 | 0.612 | 1.5 | 1.12 | 1.08 | 0.734 | 0.531
16 | NCI-H1648 | 0.423 | 0.339 | 0.473 | 0.326 | 0.234 | 0.245 | – | 0.245 | 0.228 | 0.276 | – | – | – | – | – | – | – | – | – | –
17 | NCI-H1650 | 0.556 | 0.337 | 0.208 | 0.174 | 0.137 | 0.501 | 0.184 | 0.114 | 0.137 | 0.134 | 0.669 | 0.706 | 0.406 | 0.179 | 0.17 | – | – | – | – | –
18 | NCI-H1703 | – | – | – | – | – | – | – | – | – | – | 0.898 | 0.262 | 0.156 | 0.164 | 0.114 | 0.774 | 0.228 | 0.103 | 0.101 | 0.132
19 | NCI-H2170 | 1.02 | 0.907 | 0.785 | 0.167 | 0.109 | 0.714 | 0.662 | 0.632 | 0.292 | 0.136 | 0.282 | 0.271 | 0.244 | 0.197 | 0.185 | – | – | – | – | –
20 | NCI-H2342 | 0.862 | 0.904 | 0.561 | 0.545 | 0.311 | 0.652 | 0.629 | 0.563 | 0.392 | 0.381 | – | – | – | – | – | – | – | – | – | –
21 | SW 900 | 0.722 | 0.609 | 0.119 | 0.142 | 0.13 | 0.526 | 0.241 | 0.13 | 0.0871 | 0.0793 | – | – | – | – | – | – | – | – | – | –
